In patent US20200268705A1, “CABAZITAXEL COMPOSITION FOR INJECTION AND PREPARATION METHOD THEREFOR” (BIKA BIOTECHNOLOGY (GUANGZHOU) CO., LTD., priority 2018, published 2020):

Tests used:
[1] = Solubility of cabazitaxel in PEG300/SBE-β-CD/PVPK12/water solution system with additives; format: physicochemical; details: 700 mg/ml PEG300, 290 mg/ml SBE-β-CD, 80 mg/ml PVPK12, water, nitrogen
Text: In view of various defects of the prior art, the inventor of the present application breaks through the prejudice of the prior art, conducts reverse experiments on existing knowledge, reduces the amount of cyclodextrin and abandons the use of ethanol having strong stimulation as a solvent and Tween 80 having side effects.

[2] = cited from earlier work
[3] = Solubility of cabazitaxel in 40% SBE-β-CD aqueous solution; format: physicochemical; details: found by the present inventors
Text: Cyclodextrin, a pharmaceutical excipient, has a hollow hydrophobic, stereoscopic chiral inner cavity; due to its structural characteristic of “inner hydrophobic, external hydrophilic”, it can encapsulate a variety of small organic molecules (substrates) having suitable space size to form a noncovalent host-guest complex (inclusion complex). Its most significant pharmaceutical function is to increase the water solubility of poorly soluble drugs and improve the stability of drugs. For example, the invention application No. CA2900508A1 (US20150325321A1) by Valery Alakhov et al. disclosed a composition comprising cabazitaxel and suifobutyl ether beta cyclodextrin (SBF-β-CD) in a weight ratio of 1:30 to 1:1000. […] Even if it can reach such concentration, it is difficult to prepare a cabazitaxel injection that meets the concentration specifications of commercial preparations.

Substance: (1S,2S,3R,4S,7R,9S,10S,12R,15S)-4-acetyloxy-15-{[(2R,3S)-3-{[(tertbutoxy)carbonylamino]}-2-hydroxy-3-phenylpropanoyl]oxy}-1-hydroxy-9, 12-dimethoxy-10,14,17,17-tetramethyl-11-oxo-6-oxatetracyclo[11.3.1.0^3:10.0^4:7]heptadec-13-ene-2-yl benzoate [cabazitaxel]
- solubility of cabazitaxel [1]: ≥ 40 mg/mL
- stability under alkaline conditions ([2]; alkaline conditions): unstable under alkaline conditions
- solubility in ethanol ([2]; ethanol): soluble in ethanol
- solubility in water ([2]; water): almost insoluble in water
- solubility of cabazitaxel [3]: about 1 mg/mL
